Laboratory results as given in patent US4454122A, “Adenosine derivatives of anti-inflammatory and analgesic activity, and therapeutic compositions which contain them as their active principle” (Bioresearch S.r.l., priority 1982, dated 1984).

What was measured:
[1] = test system: platelet aggregation induced by ADP; assay: in vitro platelet aggregation induced by ADP (Born & Cross method); format: cell-based
Method: (§1) (1) "in vitro" tests on platelet aggregation induced by ADP and collagen, in the presence of the new products;
(§2) Blood was withdrawn without stasis, and an anticoagulant (3.8% sodium citrate) was added to give a blood:citrate ratio of 9:1. Plasma rich in platelets and plasma poor in platelets were obtained by centrifuging at ambient temperature.
(§3) The platelet aggregation was estimated using the Born & Cross method (G. V. R. Born and M. J. Cross, J. Physiol., Lond. 168, 178, 1963) on the plasma fraction rich in platelets.
(§4) The aggregating agents were used in the following concentrations:
(§5) ADP (Sigma) 1 μM; collagen (Horn) 5 μml; arachidonic acid 4×10^-4 M.
Adenosine at a concentration of 1×10^-5 M was used as the antiaggregation activity reference substance.
The results obtained with ADP are shown on the graphs of FIG. 1, in which the abscissa indicates the time in minutes and the ordinate the percentage aggregation.
Curve 1 relates to the controls, curve 2 to the samples treated with 1×10^-5 M adenosine, and curve 3 to the samples treated with 5×10^-4 M MTA.

[2] = acute toxicity, DL50 in the mouse; settings: in vivo, po, orally
Text: The compounds of the present invention are practically free from acute toxicity when administered orally. They are practically free from toxicity at therapeutic doses for any method of administration. The following values are obtained for MTA and MTA sulphoxide: […]

[3] = test system: stretching by phenylquinone; assay: stretching test by phenylquinone (analgesic activity); format: in vivo; settings: 37 mg/kg, oral
[4] = test system: platelet aggregation induced by collagen; assay: in vitro platelet aggregation induced by collagen (Born & Cross method); format: cell-based
Method: as §1, §2, §3, §4, §5

[5] = test system: gastro-intestinal system; assay: secondary effects on the gastro-intestinal system at ED50 doses (gastric lesions); format: in vivo, rat; settings: rat, in vivo
Method: In the same test, the ED50 of indomethacine is 9 mg/kg.

[6] = lethal dose in the rat and therapeutical index; settings: in vivo
[7] = test system: experimental edema in the rat by carragen; assay: experimental edema in the rat by carragen (Winter method), percentage protection; format: in vivo; settings: po, rat
[8] = test system: platelet aggregation induced by collagen; assay: platelet aggregation induced by collagen in persons treated with the product ("in vivo" tests); design: species or system healthy volunteer subjects; settings: 100 mg every 8 hours for 3 days; collagen 5 μg/ml
Method: (§6) (3) "in vitro" tests on platelet aggregation induced by ADP and collagen in persons treated with the new products.
(§7) Three apparently healthy volunteer subjects respectively, and who had not taken any drug for at least 15 days, were submitted to aggregation tests before and after consuming the new products at a dose of 100 mg every 8 hours for 3 days, these tests then being evaluated. The blood sample for the determination of the platelet aggregation was taken 2 hours […] consuming the last dose of product under test.

[9] = test system: sleep induced by pentobarbital in the mouse; assay: Morris test, duration of the sleep induced by pentobarbital in the mouse; format: in vivo; settings: 20 mg/kg, intramuscular
Method: The Morris test was used (Morris R. W. (1966) Arch. int. Pharmacodyn 161, No. 2, 380)
In this test, the MTA increased by 87% the duration of the sleep induced by pentobarbital in the mouse, at an intramuscular dose of 20 mg/kg.

[10] = test system: fever induced in the rat by beer yeast; assay: fever induced in the rat by beer yeast (antipyretic activity); format: in vivo
Method: This was measured for the new products by means of fever induced in the rat by beer yeast (Winder C. V. et al (1961) J. Pharmacol. Exp. Ther. 133, 117).

[11] = granuloma test in the rat by cotton pellets; format: in vivo; settings: in vivo, 9 mg/kg, oral, read-out: TI (granuloma test)
Text: (§8) In the granuloma test in the rat by cotton pellets (Winter […]. et al (1963) J. Pharm. Exper.

[12] = test system: granuloma in the rat by cotton pellets; assay: granuloma test in the rat by cotton pellets; format: in vivo; settings: 9 mg/kg, oral
Text: as §8

[13] = test system: platelet aggregation induced by arachidonic acid; assay: in vitro platelet aggregation induced by arachidonic acid (AA); format: cell-based
Method: (2) "in vitro" tests on platelet aggregation induced by arachidonic acid (AA);
as §2, §3, §4, §5
The capacity of MTA to increase the inhibiting effect of prostacyclin (PGI2) in aggregation induced by AA was also investigated. In FIG. 3, curve 1 relates to the controls, curve 2 to MTA at a concentration of 5×10^-4 M, curve 3 to PGI2 at a concentration of 5×10^-9 M, and curve 4 to a mixture consisting of 5×10^-4 M MTA and 5×10^-9 M PGI2.

[14] = test system: experimental edema in the rat by carragen; assay: experimental edema in the rat by carragen (Winter method), percentage protection; format: in vivo; settings: im; 23 mg/kg intramuscularly, rat; read-out: Percent protection calculated on edema development
Method: ^ (a) signifies that the product was administered intramuscularly.

[15] = test system: pleuritis induced in the rat by carragen; assay: pleuritis induced in the rat by carragen (Velo method); format: in vivo; settings: 75 mg/kg, oral, rat
[16] = test system: mouse; assay: hot plate test on the mouse according to Roberts (analgesic activity); format: in vivo; settings: 37 mg/kg, oral
Method: C--The analgesic activity of the products was tested by two tests considered very significant.
In the hot plate test on the mouse according to Roberts (Roberts E. Simonsen D.G. (1966) Biochem. Pharmac. 15, 1875-) the MTA gives a protection of 50% with an oral dose of 37 mg/kg. An approximately equivalent protection of 58% is obtained with 100 mg/kg of amidopyrine administered orally.

[17] = test system: platelet aggregation induced by ADP; assay: platelet aggregation induced by ADP in persons treated with the product ("in vivo" tests); design: species or system healthy volunteer subjects; settings: 100 mg every 8 hours for 3 days; ADP 1 μM; FIG. 4
Method: as §6, §7
More precisely, the full-line curves relate to the values obtained with blood samples from untreated patients, whereas the dashed-line curves relate to the values obtained for the same patients treated with MTA.

[18] = summary of in vitro and in vivo tests

SMILES: CSC[C@H]1O[C@@H](n2cnc3c(N)ncnc32)[C@H](O)[C@@H]1O [MTA, 5'-deoxy-5'-methyl-thioadenosine]
- effect on primary platelet aggregation due to ADP (in words) ([1]; 5×10^-4 M, ADP 1 μM, in vitro, FIG. 1): strongly reduces primary platelet aggregation due to ADP
- effect on 2nd aggregation wave (in words) ([1]; 5×10^-4 M, ADP 1 μM, in vitro, as a consequence of reduced primary aggregation): inhibits the 2nd aggregation wave
- effect on the 1st aggregation wave (in words) [1, 18]: inhibits the 1st aggregation wave
- inhibition of platelet aggregation induced by ADP, overall (in words) [1, 18]: strongly inhibits platelet aggregation induced by ADP
- LD50 [2]: > 2000 mg/kg
- protection in the stretching test by phenylquinone [3]: 51%
- inhibiting power towards platelet aggregation induced by collagen (in words) ([4]; in vitro, collagen printed 5 μml): no inhibiting power towards platelet aggregation induced by collagen which was worthy of note
- direct effect on the 2nd aggregation wave (in words) [4, 18]: negligible direct effect on the 2nd aggregation wave
- effect on aggregation induced by collagen, overall (in words) [4, 18]: practically no effect on aggregation induced by collagen
- secondary effect on the gastro-intestinal system / gastric lesions [5]: no secondary effect on the gastro-intestinal system
- selectivity ratio ([6]; edema test in the rat, read-out: therapeutical index (TI)): > 54
- LD50 ([6]; rat, route printed "/oa"): 200 mg/kg
- inhibition in vivo at 37 mg/kg ([7]; 37 mg/kg orally, read-out: Percent protection calculated on edema development): 50%
- ED50 ([7]; administered orally, read-out: ED50 (edema test)): 37 mg/kg
- inhibition of platelet aggregation induced by collagen (in words) [8]: not effective in inhibiting platelet aggregation induced by collagen
- latency time of platelet aggregation induced by collagen (in words) [8]: lengthens the latency time
- increase of the duration of the sleep induced by pentobarbital [9]: 87%
- temperature reduction ([10]; 80 mg/kg, intramuscular): 2.35%
- temperature reduction with respect to the controls ([10]; 300 mg/kg, oral, one hour after administration): 4.59%
- temperature after lowering (from 38.8° C.) ([10]; 300 mg/kg, oral, one hour after administration, lowering from 38.8° C.): 37.4 °C
- selectivity ratio [11]: 222
- protection in the granuloma test [12]: 30%
- platelet aggregation inhibiting effect, AA induced (in words) ([13]; 2.5×10^-4, 5×10^-4 and 10^-3 M, AA 4×10^-4 M, FIG. 2): proportional to its concentration
- antiaggregation action alone, AA induced (in words) ([13]; MTA 5×10^-4 M or PGI2 5×10^-9 M, each alone, FIG. 3): ineffective
- inhibition in vivo at 23 mg/kg [14]: 50%
- protection calculated on the total number of cells present in the exudate [15]: 48.8%
- protection calculated on the volume of the exudate [15]: 42.4%
- protection in the hot plate test [16]: 50%
- platelet aggregation induced by ADP "in vivo" (in words) [17]: strongly inhibits platelet aggregation induced by ADP
